The record followed here is patent US12473295B2, “Substituted straight chain spiro derivatives” (Janssen Pharmaceutica NV, priority 2019, dated 2025).

For series [1], the system named is iCell Cardiomyocytes2. The series can be described thus: Ca2+-fluorescence assay in human pluripotent stem cell-derived cardiomyocytes (CTCM human), iCell Cardiomyocytes2. It is filed as cell-based. Also noted: key: Green: No concern; Yellow: Low concern; Red: High concern; Black: Very high concern due to arrhythmic events. The following applies: 30 min; for Color @ 0.1 μM (hazard score): iCell Cardiomyocytes2, 0.1 μM; for Color @ 0.1 μM (hazard score) / Color @ 1 μM (hazard score): range 0.1-30 μM; for Color @ 0.3 μM (hazard score): iCell Cardiomyocytes2, 0.3 μM; for Color @ 1 μM (hazard score): iCell Cardiomyocytes2, 1 μM; for Color @ 3 μM (hazard score): iCell Cardiomyocytes2, 3 μM; for Color @ 10 μM (hazard score): iCell Cardiomyocytes2, 10 μM; for Color @ 30 μM (hazard score): iCell Cardiomyocytes2, 30 μM. How it is done:
7) Cardio-Electrophysiological Effects of the Testing Compounds in Synchronously Beating Human Pluripotent Stem Cell-Derived Cardiomyocytes (hSC-CMs) Using a Ca^2+-Fluorescence Assay (CTCM Human)
Compounds were tested in the 96-well plates
Compounds were tested at 0.1 μM, 0.2 μM, 0.5 μM, 1 μM, 2.5 μM and 5 μM (n=4 per dose) on Cor.4U 9-Cardiomyocytes or on iCell® Cardiomyocytes2
Alternatively, compounds were tested at 0.1 μM, 0.3 μM; 1 μM, 3 μM, 10 μM and 30 μM (n=4 per dose) mostly on iCell® Cardiomyocytes2
Dimethylsulfoxide (DMSO). The solutions of the compound in DMSO or its solvent (final concentration of 0.1% DMSO; n=8)
Preparation of Test Article and Controls
Tested compounds were dissolved in DMSO at 1000-fold the intended concentrations. A compound “mother-plate” was made, containing the test compounds and positive and negative controls at 1000-fold the final concentrations. At the experiment day, these stock solutions were diluted with Tyrode (Sigma), supplemented with 10 mM HEPES (Gibco), to 2-fold the intended concentration (in round bottom compound plates). Final DMSO concentration in test solutions and vehicle control was 0.1%.
Second line hSC derived cardiomyocyte called iCell®, Cardiomyocytes2 were purchased from FUJIFILM Cellular Dynamics (USA). The experiments with test drugs are carried out 5 to 7 days after plating the cells onto the plate to have a living, beating monolayer of hiPSC-derived cardiomyocytes. The beating monolayer in 96-well-plates are normally taken from 2 Vials of frozen iCell) Cardiomyocytes2 (≈5 million cells/vial), which will be plated onto […] 96-well plates (≈50K/well).
Before Start of Experiment
At least one hour before the start of the experiments the normal cell medium was replaced with Tyrode solution with Calcium dye (see below).
Cal 520 dye (AAT Bioquest) was dissolved in 11 ml of Tyrode supplemented with 10 mM HEPES and warmed up to 37° C. before adding to the cells.
35 μl cell culture medium was removed from each well and replaced with 35 μl of pre-warmed Cal 520 dye solution and cell plate was incubated for 45 min at 37° C./5% CO2. Cells were incubated for 5 min at 37° C.
Spontaneous electrical activity is recorded, using Cal520™ (AAT Bioquest) calcium fluorescence-dye signaling. This dye integrates the total intracellular calcium activity over the whole well. A bottle of Cal520 dye (50 μg, MW: 1103/mol) is dissolved with 50 μl DMSO as a stock solution of 0.9 mM. 50 μL of the stock solution of the dye was added to 10 ml Tryodes solution to have dye concentration of 4.5 μM. Subsequently, 35 μl of this dye solution was added into each well, to have a final dye concentration of 1.58 μM. The current dye protocol on this CTCM human assay was established recently (Ivan Kopljar et al, Journal of Pharmacological and toxicological methods 2018. 91: 80-86; Lu et al., Tox Sci 2019. 170 (2): 345-356).
Fluorescent signals (Ca^2+ transient morphology) were measured using the Functional Drug Screen System (FDSS/μCell; Hamamatsu, Japan) and the recordings were subsequently analyzed off-line, using appropriate software e.g. Notocord.
The cell plate was loaded into the FDSS/μCell for a test run: Ca^2+ transients were measured for 4 minutes to check for synchronous beating of the cardiomyocytes in each well. All 96 wells were measured simultaneously (sampling interval: 0.06 s, short exposure time: 10 ms; excitation wavelength 480 nm; emission wavelength 540 nm; FDSS/μCell warmed to 37° C.).
During the compound addition step, 100 μl of the respective double-concentrated test solutions was pipetted into each well simultaneously.
Data were analyzed off-line using appropriate software e.g. Notocord-Hem (version 4.3).
The following parameters of the Ca^2′ transient morphology were measured: • beat rate (BR) • amplitude of the Ca^2+ transient (Amp), • CTD90: Ca^2+ transient duration at 90% (time to 90% of the initial base value). […]

For series [2], the system named is KO-52 cells. Briefly: Proliferation assay (spheroid growth, 8 days), KO-52 control cell line. Format: cell-based, human. To be noted: read-out: spheroid assay_OneTime KO-52 IC50. A digest of the protocol: (§1)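 IC50 values derive from day-8 spheroid confluence, normalized between DMSO-treated wells and the highest dose of a reference compound, fitted with a variable slope. Cells grew 8 days at 37° C under a compound concentration series in 0.3% DMSO.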

The subject of series [3] is OCI-AML3 cells. The series can be described thus: Proliferation assay (spheroid growth, 8 days), OCI-AML3. The following applies: OCI-AML3, 8 days. It is filed as cell-based, human. Summed up:
as §1

Series [4] deals with MEIS1 mRNA. Briefly: MEIS1 mRNA expression assay (Quantigene Singleplex) in MOLM14 cells.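 Also: MEIS1 transcript levels read by probe hybridization and normalized to RPL28 mRNA, with IC50 fitted to fold changes across a rising compound concentration series.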 It is filed as cell-based, human. The following applies: 48 hours incubation.
In series [5] the test system is MOLM14 cells. Briefly: Proliferation assay (spheroid growth, 8 days), MOLM14.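 Also: spheroid size read as confluence by live-cell imaging, compounds added at a range of concentrations with 0.3% DMSO, DMSO-treated wells = 0%, highest reference dose = low control.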 The following applies: MOLM14, 8 days, read-out: spheroid assay_OneTime MOLM14 IC50. It is filed as cell-based, human.
Series [6] concerns the target hERG potassium channel (Homo sapiens (Human), UniProt Q12809). The series can be described thus: Effect on membrane potassium current IKr in hERG transfected CHO cells, Protocol 1 (QPatch). It is filed as cell-based. How it is done: 8) Effect on the Membrane Potassium Current IKr in hERG Transfected Cell Lines
• CHO Chinese hamster ovary cell line • DMSO Dimethylsulfoxide • hERG human ether-á-go-go-related gene • IKr rapidly activating delayed-rectifier K^+ current Methods
Experiments were performed using CHO cells stably expressing the hERG potassium channel. Cells were grown at 37° C. and 5% CO2 in culture flasks in Ham's F12 Medium supplemented with 10% heat-inactivated fetal calf serum, hygromycin B (100 μg/ml) and geneticin (100 μg/ml). For use in the automated patch-clamp system QPatch (Sophion) cells were harvested to obtain cell suspension of single cells.
Solutions: The bath solution contained (in mM) 145 NaCl, 4 KCl, 10 glucose, 10 HEPES ((4-(2-hydroxyethyl)-1-piperazineethanesulfonic acid), 2 CaCl2 and 1 MgCl2 (pH 7.4 with NaOH). The pipette solution contained (in mM) 120 KCl, 10 EGTA (Ethylene glycol-bis(2-aminoethylether)-N,N,N′,N′-tetraacetic acid), 10 HEPES, 5.374 CaCl2 and 1.75 MgCl2 (pH 7.2 with KOH).
Patch-clamp experiments were performed in the voltage-clamp mode and whole-cell currents were recorded with an automated patch-clamp assay utilizing the QPatch system (Sophion). Current signals were amplified and digitized, stored and analyzed by using the QPatch assay software.
The holding potential was −80 mV. The hERG current (K^+-selective outward current) was determined as the maximal tail current at −40 mV after a 2 second depolarization to +60 mV. Pulse cycling rate was 15 s. A short pulse (90 ms) to −40 mV served as a baseline step to calculate the tail current amplitude. After establishing whole-cell configuration and a stability period, the solvent control (0.3% DMSO) was applied for 5 minutes followed by the test substance by four increasing concentrations of 3×10^−7 M, 3×10^−6 M, 10^−5 M and 3×10^−5 M. Each concentration of the test substance was applied twice. The effect of each concentration was determined after 5 min as an average current of 3 sequential voltage pulses. To determine the extent of block the residual current was compared with vehicle pre-treatment.
Concentration/response relations were calculated by non-linear least-squares fits to the individual data points. The half-maximal inhibiting concentration (IC50) was calculated by the fitting routine.
(The hERG channel carries a current that helps repolarise heart muscle cells.)

For series [7], the target named is menin/MLL (terbium chelate-labeled menin, FITC-MBM1 peptide) (Homo sapiens (Human), UniProt O00255). The series can be described thus: Menin/MLL homogenous time-resolved fluorescence (HTRF) assay.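 Also: IC50 from percent inhibition of HTRF signal, normalized between wells without competitor and wells with a saturating competitor that displaces FITC-MBM1 from His-tagged menin.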 Format: binding. To be noted: HTRF-30 min incubation IC50, 30 min incubation. On the technique in general: In TR-FRET formats the signal depends on donor and acceptor labels being close together.
menin/MLL (terbium chelate-labeled menin, FITC-MBM1 peptide), sequence (O00255 other isoform, or with tags, fused parts or gaps): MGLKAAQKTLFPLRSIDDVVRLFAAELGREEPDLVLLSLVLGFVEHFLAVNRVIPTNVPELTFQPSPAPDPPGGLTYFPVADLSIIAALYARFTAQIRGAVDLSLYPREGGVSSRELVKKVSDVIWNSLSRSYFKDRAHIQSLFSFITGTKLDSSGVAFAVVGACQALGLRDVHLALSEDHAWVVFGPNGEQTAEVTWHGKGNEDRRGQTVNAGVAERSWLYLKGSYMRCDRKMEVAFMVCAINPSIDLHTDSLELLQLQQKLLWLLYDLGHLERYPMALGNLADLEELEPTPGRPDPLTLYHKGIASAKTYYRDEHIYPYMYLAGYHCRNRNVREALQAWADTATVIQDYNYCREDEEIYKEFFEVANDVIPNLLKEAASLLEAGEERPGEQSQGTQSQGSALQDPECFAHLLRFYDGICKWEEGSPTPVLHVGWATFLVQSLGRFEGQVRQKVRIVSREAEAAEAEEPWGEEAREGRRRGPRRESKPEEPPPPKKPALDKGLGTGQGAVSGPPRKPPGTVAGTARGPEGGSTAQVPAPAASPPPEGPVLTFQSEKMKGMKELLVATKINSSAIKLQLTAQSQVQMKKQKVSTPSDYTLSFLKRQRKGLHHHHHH

The structures appear in SMILES notation. Where two headings read alike, the source gives them in different places. Where only a bound is given, the exact number is not on record here.

hERG potassium channel, sequence (Q12809 whole entry): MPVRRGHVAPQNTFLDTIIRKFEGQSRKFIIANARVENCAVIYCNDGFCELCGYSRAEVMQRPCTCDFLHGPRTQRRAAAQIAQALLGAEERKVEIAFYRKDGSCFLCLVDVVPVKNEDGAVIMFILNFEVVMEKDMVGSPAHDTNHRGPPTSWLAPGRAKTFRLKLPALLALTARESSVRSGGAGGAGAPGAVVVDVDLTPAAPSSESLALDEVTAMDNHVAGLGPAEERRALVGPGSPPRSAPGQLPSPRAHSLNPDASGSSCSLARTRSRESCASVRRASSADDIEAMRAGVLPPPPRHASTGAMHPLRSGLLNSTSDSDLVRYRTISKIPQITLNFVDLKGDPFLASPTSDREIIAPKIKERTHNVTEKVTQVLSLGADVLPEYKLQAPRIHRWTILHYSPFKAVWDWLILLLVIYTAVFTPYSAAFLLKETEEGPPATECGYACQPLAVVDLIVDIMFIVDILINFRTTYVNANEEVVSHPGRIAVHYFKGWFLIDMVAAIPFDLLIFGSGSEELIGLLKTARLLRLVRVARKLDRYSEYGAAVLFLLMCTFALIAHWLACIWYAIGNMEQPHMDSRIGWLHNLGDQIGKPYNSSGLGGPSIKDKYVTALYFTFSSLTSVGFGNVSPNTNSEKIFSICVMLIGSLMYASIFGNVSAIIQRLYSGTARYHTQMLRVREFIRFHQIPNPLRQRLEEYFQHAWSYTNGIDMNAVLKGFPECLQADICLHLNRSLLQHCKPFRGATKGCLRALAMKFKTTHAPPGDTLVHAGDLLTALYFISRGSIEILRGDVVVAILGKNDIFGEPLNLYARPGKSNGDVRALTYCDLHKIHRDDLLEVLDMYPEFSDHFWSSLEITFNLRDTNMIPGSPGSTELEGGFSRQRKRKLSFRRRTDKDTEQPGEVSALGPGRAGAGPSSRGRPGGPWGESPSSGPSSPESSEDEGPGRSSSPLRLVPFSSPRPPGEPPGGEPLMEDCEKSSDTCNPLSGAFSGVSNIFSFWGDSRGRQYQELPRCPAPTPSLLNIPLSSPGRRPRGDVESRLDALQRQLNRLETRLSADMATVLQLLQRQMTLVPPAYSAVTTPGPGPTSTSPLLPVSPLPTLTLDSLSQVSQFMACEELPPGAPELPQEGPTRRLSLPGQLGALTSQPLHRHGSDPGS

As usually defined, the IC50 is the concentration needed to halve the response being measured. Turning to `CCN(C(=O)c1cc(F)ccc1Oc1nncnc1N1CCC2(C1)CN([C@H](CCCN(C)CCO)C(C)C)C2)C(C)C` [Compound 286, (R)-N-ethyl-5-fluoro-2-((5-(2-(6-((2-hydroxyethyl)(methyl)amino)-2-methylhexan-3-yl)-2,6-diazaspiro[3.4]octan-6-yl)-1,2,4-triazin-6-yl)oxy)-N-isopropylbenzamide], in series [1], the “Color @ 0.1 μM (hazard score)” value is on record as “Green”, the “Color @ 0.3 μM (hazard score)” value is “Green”, the “Color @ 1 μM (hazard score)” value is recorded as “Green” and the “Color @ 3 μM (hazard score)” value is “Green”. Moreover, in series [1], the “Color @ 10 μM (hazard score)” value is given as “Green” and the “Color @ 30 μM (hazard score)” value is “Green”. Moreover, in series [2], the IC50 came out at 22.9 µM. This compound came in with an IC50 in series [3] of 290 nM. For the same compound, in series [4], the IC50 was 96 nM. Moreover, in series [5], the IC50 worked out at 76 nM.

`CCN(C(=O)c1cc(F)ccc1Oc1nncnc1N1CCC2(C1)CN(C(CCCO)C(C)C)C2)C(C)C` (stereo not drawn) [Compound 49, N-ethyl-5-fluoro-2-((5-(2-(6-hydroxy-2-methylhexan-3-yl)-2,6-diazaspiro[3.4]octan-6-yl)-1,2,4-triazin-6-yl)oxy)-N-isopropylbenzamide] came in with an IC50 in series [6] above 30.2 µM.

Consider `CCN(C(=O)c1cc(F)ccc1Oc1nncnc1N1CCC2(C1)CN([C@H](CCCNC)C(C)C)C2)C(C)C` [Compound 398, (R)-N-ethyl-5-fluoro-N-isopropyl-2-((5-(2-(2-methyl-6-(methylamino)hexan-3-yl)-2,6-diazaspiro[3.4]octan-6-yl)-1,2,4-triazin-6-yl)oxy)benzamide], for which, in series [1], the “Color @ 0.1 μM (hazard score)” value is given as “Green”, the “Color @ 0.3 μM (hazard score)” value was “Green”, the “Color @ 1 μM (hazard score)” value is “Green” and the “Color @ 3 μM (hazard score)” value was “Green”. In series [1], the “Color @ 10 μM (hazard score)” value is on record as “Green” and the “Color @ 30 μM (hazard score)” value is given as “Green”. For the same compound, the half-inhibitory concentration (IC50) in series [2] (Homo sapiens, […]) was above 15 µM. The compound also gave an IC50 in series [3] (Homo sapiens, OCI-AML-3, […]) of 220 nM. Moreover, the IC50 in series [5] (Homo sapiens, MOLM-14, […]) stood at 64 nM.

Take `CCN(C(=O)c1cc(F)ccc1Oc1nncnc1N1CCC2(C1)CN([C@H](CCCN(C)C(=O)OC)C(C)C)C2)C(C)C` [Compound 22, methyl (R)-(4-(6-(6-(2-(ethyl(isopropyl)carbamoyl)-4-fluorophenoxy)-1,2,4-triazin-5-yl)-2,6-diazaspiro[3.4]octan-2-yl)-5-methylhexyl)(methyl)carbamate]: the IC50 in series [2] (Homo sapiens, […]) was 12.8 µM; in series [7], 1.79 nM; in series [6], 20.9 µM; in series [4] (Homo sapiens, MOLM-14, 48 h), around 760 nM; in series [5] (Homo sapiens, MOLM-14, […]), 360 nM.

For `CCN(C(=O)c1cc(F)ccc1Oc1nncnc1N1CCC2(C1)CN([C@H](CCCN(C)CCOC)C(C)C)C2)C(C)C` [Compound 70a], in series [1], the “Color @ 0.1 μM (hazard score)” value is “Green”, the “Color @ 0.3 μM (hazard score)” value was “Green”, the “Color @ 1 μM (hazard score)” value is “Green” and the “Color @ 3 μM (hazard score)” value is “Green”. In series [1], the “Color @ 10 μM (hazard score)” value is reported as “Green” and the “Color @ 30 μM (hazard score)” value is given as “yellow”.

For `CCN(CCC[C@H](C(C)C)N1CC2(CCN(c3ncnnc3Oc3ccc(F)cc3C(=O)N(CC)C(C)C)C2)C1)CCOC` [Compound 71, (R)-N-ethyl-2-((5-(2-(6-(ethyl(2-methoxyethyl)amino)-2-methylhexan-3-yl)-2,6-diazaspiro[3.4]octan-6-yl)-1,2,4-triazin-6-yl)oxy)-5-fluoro-N-isopropylbenzamide], the IC50 in series [2] (Homo sapiens, […]) is 12.8 µM; in series [3] (Homo sapiens, OCI-AML-3, […]), 1470 nM; in series [6], above 30.2 µM; in series [4] (Homo sapiens, MOLM-14, 48 h), 380 nM; in series [5] (Homo sapiens, MOLM-14, […]), 560 nM.
